Reference: US9139551B2, “Preparation of a new class of water-soluble ammonium 2,3-dihydroxy-5-((2R,3R)-3,5,7-trihydroxy-4-oxochroman-2-yl) phenolates and their biological activity of alcohol elimination” (priority 2014, dated 2015)
Values joined by “and” are separate entries in the source; they are usually repeats but may differ in a detail not shown here. Identical values can stand only once. Like-named read-outs stand apart in the source and are kept apart here. Marks after values point to notes of the source that are not given here.

Columns and labels:
[1] = Acute toxicity, intragastric administration (maximum tolerated dose); conditions: both, mouse, in vivo, po, 1250 mg/kg
mice [2] = assay: as above; conditions: for average body weight of mice / dietary change-by-day of mice: PDHM MTD 3750 mg/kg i.g.
Balb/C mice [3] = assay: Deintoxication test (agent 30 min before alcohol)
Balb/C mice [4] = assay: Climbing net test; type: in vivo; conditions: 2 mg/kg gavage 30 min before alcohol; vertical metal net
Experimental: Climbing Net Test • Groups design and treatment before experiment are as the same as that in deintoxication test. […] 30 minutes later all mice administrated alcohol (liquid Erguotou, ethonol concentration was diluted to 30%) 0.2 mL/kg BW and placed on a vertical metal net and measured the time when mice climbed on net.

[5] = Acute toxicity, intraperitoneal administration (mortality, LD50, body weight, dietary); type: in vivo, mice; conditions: both sexes, mouse, in vivo, ip, mice, i.p., observed 7 days
Experimental: (§1) Acute Toxicity • Compounds PDHM/TDHM.
(§2) 140 mice were divided into 7 groups (n=20), each group include 10 males and 10 females, they were treated with different concentrations of dosages and observed for 7 days. Specific experimental groups and experimental results were noted below. Note: Section 1-6 group compound are PDHM groups, and group 7 is a negative control group.
(§3) 140 mice were divided into 7 groups (n=20), each group include 10 males and 10 females, they were treated with different concentrations of dosage and observed for 7 days. Note: Section 1-6 group compound are PDHM groups, and group 7 is a negative control group.

mice [6] = assay: as above; type: in vivo; conditions: for Dead number: 20 mice; for Dead number / mortality: 7 days
Experimental: as §1, §2, §3

Balb/C mice [7] = assay: Anti-alcoholism test (agent 30 min after alcohol); type: in vivo
Source text: Anti-Alcoholism Tests • Groups design and treatment before experiment are as the same as that in Deintoxication test. […]

Balb/C mice [8] = assay: Plasma EtOH concentration assay; type: in vivo; conditions: intragastric 2 mg/kg
Experimental: Plasma EtOH Concentration Assay. • Blood samples from the tail vein of mice at different time points (0, 15, 30, 45, 60, 90, 120, 240, 480 and 720 minutes) after EtOH (30% ethanol, 0.2 ml/kg bw) or TDHM (2 mg/kg bw), PDHM (2 mg/kg bw) or DHM (2 mg/kg bw) gavage were collected for plasma EtOH concentrations (plasma [EtOH]) assays. (“BW” or “bw”: body weight) • Briefly, the Balb/C mice were put into a restraint tube and the tail was warmed at 37° C. The tail vein at the tip of the tail was punched with a sharp blade. Approximately 0.2 ml venous blood was dropped to a capillary blood collection tube containing lithium heparin (Ram Scientific). Blood samples were centrifuged at 2500 rpm for 20 min. The supernatant was collected and stored at −80° C. until assay. The EtOH content of each blood sample was measured in duplicate along with EtOH standards using the alcohol oxidase reaction procedures (EnzyChrom™ Ethanol Acid Assay Kit, ECET-100) (Liang et al., 2007). The sample preparations were the same as described above.

[9] = 2 mg/kg gavage 30 min before 30% ethanol
[10] = agents intragastric 30 minutes before drinking
[11] = 2 mg/kg gavage 30 min after 30% ethanol
[12] = 2 mg/kg gavage 30 min after 30% ethanol, 20 mice

O=C1c2c(O)cc(O)cc2O[C@H](c2cc(O)c(O)c(O)c2)[C@H]1O [PDHM, piperidinium 2,3-dihydroxy-5-((2R,3R)-3,5,7-trihydroxy-4-oxochroman-2-yl)phenolate]
MTD at 7 days [1]: 3750 mg/kg
average body weight of mice (mice [2]; D1): 1.97 g
dietary change-by-day of mice (mice [2]; D1): 5.98 g
average body weight of mice (mice [2]; D2): 3.47 g
dietary change-by-day of mice (mice [2]; D2): 6.1 g
average body weight of mice (mice [2]; D3): 4.77 g
dietary change-by-day of mice (mice [2]; D3): 6.03 g
average body weight of mice (mice [2]; D4): 6.37 g
dietary change-by-day of mice (mice [2]; D4): 6.14 g
average body weight of mice (mice [2]; D5): 7.38 g
dietary change-by-day of mice (mice [2]; D5): 6.48 g
average body weight of mice (mice [2]; D6): 8.41 g
dietary change-by-day of mice (mice [2]; D6): 6.32 g
average body weight of mice (mice [2]; D7): 9.67 g
dietary change-by-day of mice (mice [2]; D7): 6.57 g
pathological examination of stomach, liver, kidney (mice [2]; mice at MTD, end of 7-day observation): no obvious degeneration, necrosis and other changes
pathology changes in livers, kidneys, hearts and lungs (mice [2]; mice of the toxicity experiments): No degeneration and necrosis pathology changes
deaths in preliminary experiments (mice [2]; mice, different doses, gavage once, observed 7 days): no deaths occurred
deaths during the observation period at MTD (mice [2]; mice, gavage three times a day, 7 days): No deaths
Sleep time M ± SD (Balb/C mice [3]; [9]): 125.33 ± 33.75 min
Tolerance time M ± SD (Balb/C mice [3]; [9]): 25.43 ± 10.80 min
Dead number (Balb/C mice [3]; 2 mg/kg gavage 30 min before 30% ethanol, 20 mice): 2 piece
holding time comparing with DHM (Balb/C mice [3]; [10]): shorten
tolerance time of righting reflex disappearing comparing with DHM (Balb/C mice [3]; [10]): obviously prolonged
climbing (Balb/C mice [4]): 392.25 ± 76.67^#& min
LD50 at 7 days ([5]; read-out: 95% confidence limit of LD50): 743 to 755 mg/kg
LD50 at 7 days ([5]; read-out: LD50): 902 mg/kg
Dead number (mice [6]; PDHM 853.27 mg/kg i.p.): 0
mortality (mice [6]; PDHM 853.27 mg/kg i.p.): 0%
average dietary of mice (mice [6]; PDHM 853.27 mg/kg i.p., D1): 3.79 g
average dietary of mice (mice [6]; PDHM 853.27 mg/kg i.p., D2): 4.58 g
average dietary of mice (mice [6]; PDHM 853.27 mg/kg i.p., D3): 3.6 g
average dietary of mice (mice [6]; PDHM 853.27 mg/kg i.p., D4): 4.92 g
average dietary of mice (mice [6]; PDHM 853.27 mg/kg i.p., D5): 5.76 g
average dietary of mice (mice [6]; PDHM 853.27 mg/kg i.p., D6): 5.31 g
average dietary of mice (mice [6]; PDHM 853.27 mg/kg i.p., D7): 5.83 g
Dead number (mice [6]; PDHM 874.6 mg/kg i.p.): 6
mortality (mice [6]; PDHM 874.6 mg/kg i.p.): 30%
average dietary of mice (mice [6]; PDHM 874.6 mg/kg i.p., D1): 3.91 g
average dietary of mice (mice [6]; PDHM 874.6 mg/kg i.p., D2): 4.73 g
average dietary of mice (mice [6]; PDHM 874.6 mg/kg i.p., D3): 5.81 g
average dietary of mice (mice [6]; PDHM 874.6 mg/kg i.p., D4): 5.43 g
average dietary of mice (mice [6]; PDHM 874.6 mg/kg i.p., D5): 4.97 g
average dietary of mice (mice [6]; PDHM 874.6 mg/kg i.p., D6): 5.88 g
average dietary of mice (mice [6]; PDHM 874.6 mg/kg i.p., D7): 5.72 g
Dead number (mice [6]; PDHM 896.47 mg/kg i.p.): 10
mortality (mice [6]; PDHM 896.47 mg/kg i.p.): 50%
average dietary of mice (mice [6]; PDHM 896.47 mg/kg i.p., D1): 3.35 g
average dietary of mice (mice [6]; PDHM 896.47 mg/kg i.p., D2): 4.92 g
average dietary of mice (mice [6]; PDHM 896.47 mg/kg i.p., D3): 5.78 g
average dietary of mice (mice [6]; PDHM 896.47 mg/kg i.p., D4): 6.04 g
average dietary of mice (mice [6]; PDHM 896.47 mg/kg i.p., D5): 5.72 g
average dietary of mice (mice [6]; PDHM 896.47 mg/kg i.p., D6): 5.34 g
average dietary of mice (mice [6]; PDHM 896.47 mg/kg i.p., D7): 5.65 g
Dead number (mice [6]; PDHM 918.88 mg/kg i.p.): 12
mortality (mice [6]; PDHM 918.88 mg/kg i.p.): 60%
average dietary of mice (mice [6]; PDHM 918.88 mg/kg i.p., D1): 4.21 g
average dietary of mice (mice [6]; PDHM 918.88 mg/kg i.p., D2): 4.79 g
average dietary of mice (mice [6]; PDHM 918.88 mg/kg i.p., D3): 5.21 g
average dietary of mice (mice [6]; PDHM 918.88 mg/kg i.p., D4): 6.08 g
average dietary of mice (mice [6]; PDHM 918.88 mg/kg i.p., D5): 5.83 g
average dietary of mice (mice [6]; PDHM 918.88 mg/kg i.p., D6): 6.24 g
average dietary of mice (mice [6]; PDHM 918.88 mg/kg i.p., D7): 5.13 g
Dead number (mice [6]; PDHM 941.85 mg/kg i.p.): 18
mortality (mice [6]; PDHM 941.85 mg/kg i.p.): 90%
average dietary of mice (mice [6]; PDHM 941.85 mg/kg i.p., D1): 4.76 g
average dietary of mice (mice [6]; PDHM 941.85 mg/kg i.p., D2): 3.92 g
average dietary of mice (mice [6]; PDHM 941.85 mg/kg i.p., D3): 4.66 g
average dietary of mice (mice [6]; PDHM 941.85 mg/kg i.p., D4): 5.82 g
average dietary of mice (mice [6]; PDHM 941.85 mg/kg i.p., D5): 6.15 g
average dietary of mice (mice [6]; PDHM 941.85 mg/kg i.p., D6): 5.79 g
average dietary of mice (mice [6]; PDHM 941.85 mg/kg i.p., D7): 5.43 g
Dead number (mice [6]; PDHM 965.4 mg/kg i.p.): 20
mortality (mice [6]; PDHM 965.4 mg/kg i.p.): 100%
average dietary of mice (mice [6]; PDHM 965.4 mg/kg i.p., D1): 0 g
average dietary of mice (mice [6]; PDHM 965.4 mg/kg i.p., D2): 0 g
average dietary of mice (mice [6]; PDHM 965.4 mg/kg i.p., D3): 0 g
average dietary of mice (mice [6]; PDHM 965.4 mg/kg i.p., D4): 0 g
average dietary of mice (mice [6]; PDHM 965.4 mg/kg i.p., D5): 0 g
average dietary of mice (mice [6]; PDHM 965.4 mg/kg i.p., D6): 0 g
average dietary of mice (mice [6]; PDHM 965.4 mg/kg i.p., D7): 0 g
effect on dietary and body weight (mice [6]; mice): no significant effect
LD50 (mice [6]; mice, i.p., observed 7 days): 888.79 to 914.58 mg/kg and 748.69 mg/kg
Sleep time M ± SD (Balb/C mice [7]; [11]): 107.71 ± 36.87*^& min
Tolerance time M ± SD (Balb/C mice [7]; [11]): 22.14 ± 15 min
Dead number (Balb/C mice [7]; [12]): 2 piece
Rate of drunk (Balb/C mice [7]; [12]): 10%
sleep time in drunk mice comparing with DHM (Balb/C mice [7]; 2 mg/kg gavage 30 min after alcohol): remarkably shorten
blood alcohol concentration vs control group treated with saline (Balb/C mice [8]): significantly decreased
reduction of blood alcohol concentration compared with DHM (Balb/C mice [8]): better beneficial effect than DHM
